From ChEMBL document CHEMBL1201862, “PubChem BioAssay data set” (2004)
Calls of active or inactive are those of the source. For most assays here, no stated cut-off is given here; in the data, actives have a measured EC50 and inactives only a lower limit.

What was measured:
[1] = A Cell Based Secondary Assay To Explore Cytotoxicity of Compounds that Sensitize Mycobacterium Tuberculosis to Beta-Lactam Antibiotics.; type: functional
NS3 = NS3 (Hepatitis C virus, UniProt A3EZJ3); test: PubChem AID 2173; set-up: species or system Hepacivirus hominis
CAAX prenyl protease 2 = target: T1, CAAX prenyl protease 2 (Saccharomyces cerevisiae S288c, UniProt Q03530); type: biochemical
T1 sequence (Q03530 whole entry): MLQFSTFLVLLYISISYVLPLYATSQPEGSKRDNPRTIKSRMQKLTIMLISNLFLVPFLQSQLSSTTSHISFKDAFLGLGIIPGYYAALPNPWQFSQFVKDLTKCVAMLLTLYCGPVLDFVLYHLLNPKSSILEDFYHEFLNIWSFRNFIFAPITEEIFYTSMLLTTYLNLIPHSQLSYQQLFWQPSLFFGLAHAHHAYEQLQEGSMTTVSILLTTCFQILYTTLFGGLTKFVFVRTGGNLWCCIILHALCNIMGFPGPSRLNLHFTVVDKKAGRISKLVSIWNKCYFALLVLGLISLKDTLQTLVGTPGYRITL

[2] = Luminescence Cell-Based Dose Response to Identify Activators of 5'UTR Stem-Loop Driven Prion Protein mRNA Translation in H4-C Neuroglioblastoma Cells. [Related pubchem assays: 1829 (Project Summary), 1814 (Primary HTS)]; type: functional
[3] = Luminescence Cell-Based Dose Response HTS to Identify Activators of Luciferase Translation or Activity in H4 […] Cells. [Related pubchem assays: 1829 (Project Summary), 1814 (Primary HTS)]; type: functional
H4 = test: Luminescence Cell-Based Dose Response HTS to Identify Activators of 5'UTR Stem-Loop Driven Prion Protein mRNA Translation in H4 Neuroglioblastoma Cells. [Related pubchem assays: 1829 (Project Summary), 1814 (Primary HTS)]; type: functional; settings: Homo sapiens
Beta-galactosidase = Beta-galactosidase (Escherichia coli, UniProt Q8VNN2); test: PubChem AID 485352; type: functional
[4] = Luminescence Cell-Based Dose Response to Identify Activators of Luciferase Translation or Activity in H4-C Neuroglioblastoma Cells. [Related pubchem assays: 1829 (Project Summary), 1814 (Primary HTS)]; type: functional
Large T antigen = Large T antigen (Simian virus 40, UniProt P03070); type: functional, Betapolyomavirus macacae;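 further: Confirmatory-stage PubChem screen for compounds that inhibit SV40 T antigen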
[5] = target: T2, Type-1 angiotensin II receptor (Homo sapiens, UniProt P30556); test: antagonism of angiotensin II type 1 receptor – cell-based, uHTS hits, selectivity assay for APJ receptor antagonist project, dose response (AID 463214); type: functional;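 further: antagonist potency against angiotensin II stimulated AT1 response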
T2 sequence (P30556 whole entry): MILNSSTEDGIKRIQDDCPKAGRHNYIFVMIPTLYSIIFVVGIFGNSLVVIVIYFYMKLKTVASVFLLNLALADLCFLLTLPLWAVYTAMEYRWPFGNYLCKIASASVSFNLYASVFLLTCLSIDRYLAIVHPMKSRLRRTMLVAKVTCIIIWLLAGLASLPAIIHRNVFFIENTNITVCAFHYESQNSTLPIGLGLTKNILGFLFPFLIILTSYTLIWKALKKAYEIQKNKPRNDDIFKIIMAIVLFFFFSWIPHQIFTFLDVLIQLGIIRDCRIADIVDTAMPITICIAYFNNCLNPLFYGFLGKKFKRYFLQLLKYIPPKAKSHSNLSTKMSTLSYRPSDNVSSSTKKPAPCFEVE

[6] = Luminescence Cell-Based Dose Confirmation to Identify Activators of 5'UTR Stem-Loop Driven Alpha-Synuclein mRNA Translation in H4 Neuroglioblastoma Cells. [Related pubchem assays: 1829 (Project Summary), 1814 (Primary HTS)]; type: functional
[7] = HPDE-C7 pancreatic duct cell viability loss – fluorescence, HTS (AID 430); type: functional, cell-based; settings: Homo sapiens
[8] = viability loss of HPDE-C7K cells – cell-based, fluorescence, HTS, primary screen (AID 431); type: functional; settings: Homo sapiens

Chain of NS3 (A3EZJ3 whole entry): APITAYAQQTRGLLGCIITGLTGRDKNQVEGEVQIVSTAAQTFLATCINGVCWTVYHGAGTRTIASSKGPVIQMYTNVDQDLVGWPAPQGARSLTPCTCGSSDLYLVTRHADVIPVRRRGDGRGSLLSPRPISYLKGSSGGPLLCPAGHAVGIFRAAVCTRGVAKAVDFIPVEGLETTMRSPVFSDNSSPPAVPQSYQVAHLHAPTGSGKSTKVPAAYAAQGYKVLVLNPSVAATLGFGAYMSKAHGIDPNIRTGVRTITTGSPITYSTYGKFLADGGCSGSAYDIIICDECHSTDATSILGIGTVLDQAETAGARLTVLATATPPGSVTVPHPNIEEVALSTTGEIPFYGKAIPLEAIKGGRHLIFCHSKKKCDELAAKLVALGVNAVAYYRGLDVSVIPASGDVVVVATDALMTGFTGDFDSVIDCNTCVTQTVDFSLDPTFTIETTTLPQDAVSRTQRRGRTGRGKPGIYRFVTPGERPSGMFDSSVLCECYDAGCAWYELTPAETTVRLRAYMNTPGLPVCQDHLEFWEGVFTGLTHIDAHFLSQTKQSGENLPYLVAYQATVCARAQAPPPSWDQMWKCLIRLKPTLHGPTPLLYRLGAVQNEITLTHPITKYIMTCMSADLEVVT
Chain of Beta-galactosidase (Q8VNN2 whole entry): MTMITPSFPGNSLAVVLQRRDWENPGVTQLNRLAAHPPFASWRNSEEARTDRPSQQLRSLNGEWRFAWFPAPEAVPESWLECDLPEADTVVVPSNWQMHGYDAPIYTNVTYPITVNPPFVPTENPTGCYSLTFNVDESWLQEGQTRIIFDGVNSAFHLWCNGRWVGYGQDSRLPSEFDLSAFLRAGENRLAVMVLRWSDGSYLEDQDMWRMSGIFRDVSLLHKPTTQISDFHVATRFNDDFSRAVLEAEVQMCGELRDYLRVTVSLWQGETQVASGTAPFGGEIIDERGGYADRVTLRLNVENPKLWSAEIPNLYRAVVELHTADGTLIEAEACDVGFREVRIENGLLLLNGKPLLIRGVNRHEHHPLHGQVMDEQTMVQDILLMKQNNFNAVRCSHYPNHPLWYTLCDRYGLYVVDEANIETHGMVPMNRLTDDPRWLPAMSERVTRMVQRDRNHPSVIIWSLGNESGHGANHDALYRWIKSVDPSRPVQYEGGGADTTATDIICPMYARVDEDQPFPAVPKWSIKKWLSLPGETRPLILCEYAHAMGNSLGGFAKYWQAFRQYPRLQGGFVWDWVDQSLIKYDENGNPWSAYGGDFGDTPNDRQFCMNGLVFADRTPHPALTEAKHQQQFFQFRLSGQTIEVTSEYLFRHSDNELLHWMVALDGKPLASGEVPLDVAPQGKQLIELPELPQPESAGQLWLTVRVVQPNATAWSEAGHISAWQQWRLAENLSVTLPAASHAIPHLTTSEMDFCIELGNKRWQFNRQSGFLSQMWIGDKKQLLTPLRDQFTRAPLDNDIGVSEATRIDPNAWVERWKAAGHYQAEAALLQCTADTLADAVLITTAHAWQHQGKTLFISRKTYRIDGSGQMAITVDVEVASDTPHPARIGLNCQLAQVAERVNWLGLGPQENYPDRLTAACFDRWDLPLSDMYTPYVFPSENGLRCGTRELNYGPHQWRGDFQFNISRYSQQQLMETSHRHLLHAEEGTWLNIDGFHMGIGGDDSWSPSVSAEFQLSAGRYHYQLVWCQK
Chain of Large T antigen (P03070 whole entry): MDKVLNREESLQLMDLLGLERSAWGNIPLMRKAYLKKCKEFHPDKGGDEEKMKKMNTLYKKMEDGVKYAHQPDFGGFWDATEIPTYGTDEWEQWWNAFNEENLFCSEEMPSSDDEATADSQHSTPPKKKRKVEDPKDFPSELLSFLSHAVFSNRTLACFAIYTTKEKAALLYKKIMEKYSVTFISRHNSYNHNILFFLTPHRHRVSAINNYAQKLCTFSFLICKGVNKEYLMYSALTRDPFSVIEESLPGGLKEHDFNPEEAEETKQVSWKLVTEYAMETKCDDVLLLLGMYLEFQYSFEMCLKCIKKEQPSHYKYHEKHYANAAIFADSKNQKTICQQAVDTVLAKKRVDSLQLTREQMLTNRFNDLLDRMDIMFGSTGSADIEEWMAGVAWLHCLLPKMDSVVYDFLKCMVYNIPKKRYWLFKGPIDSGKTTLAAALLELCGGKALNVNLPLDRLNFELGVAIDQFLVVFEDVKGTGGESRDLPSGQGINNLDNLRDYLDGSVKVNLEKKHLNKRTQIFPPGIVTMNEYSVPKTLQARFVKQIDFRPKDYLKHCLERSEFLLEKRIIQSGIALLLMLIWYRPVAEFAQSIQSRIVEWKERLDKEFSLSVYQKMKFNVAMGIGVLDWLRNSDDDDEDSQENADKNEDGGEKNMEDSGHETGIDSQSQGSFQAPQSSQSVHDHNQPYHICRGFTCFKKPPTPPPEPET

Question: Which CC50 [1] does the source give for `COc1cc2nc(N3CCN(C(=O)OCc4ccccc4)[C@H](C(=O)NC(C)(C)C)C3)nc(N)c2cc1OC` here?
Answer: Its CC50 is 29.3 µM (active).

Question: With `Cc1cc(C(=O)CN2C(=O)NC(c3ccccc3)(c3ccccc3)C2=O)c(C)n1Cc1ccccc1` as the compound, how does the CC50 [1] read?
Answer: Its CC50 is > 40 µM (active).

Question: With `CCCCOc1ccc(-c2cc(C(F)(F)F)c(C#N)c(SCC(=O)O)n2)cc1` as the compound, how does the IC50 (NS3) read?
Answer: The IC50 was 1.98 µM (active).

Question: And the AC50 (CAAX prenyl protease 2)?
Answer: Its AC50 is 25.4 µM (active).

Question: For `CC(C)(C)c1ccc(OCc2ccc(C(=O)N/N=C3\CC4CC=CC34)cc2)cc1` (stereo not given), which CC50 [1] is on record?
Answer: The CC50 was > 40 µM (active).

Question: With `Cc1ccc(SSc2cc(C)ccc2N)c(N)c1` as the compound, how does the EC50 [2] read?
Answer: Its EC50 is 1.21 µM (active).

Question: What about the EC50 [3] of the same compound?
Answer: The EC50 was < 0.1 µM (inconclusive).

Question: What about the EC50 (H4) of the same compound?
Answer: The EC50 was 42.5 µM (inconclusive).

Question: And the EC50 (Beta-galactosidase)?
Answer: The EC50 was > 40 µM (inactive).

Question: What about the EC50 [4] of the same compound?
Answer: The EC50 was 1.67 µM (active).

Question: And the IC50 (Large T antigen)?
Answer: Its IC50 is 10.8 µM (active).

Question: What about the IC50 [5] of the same compound?
Answer: Its IC50 is > 40 µM (not active).

Question: And the EC50 [6]?
Answer: Its EC50 is 5 µM (active).

Question: With `O=C(CCC(=O)N1CCN(C2CCCC2)CC1)Nc1nnc(C(F)(F)F)s1` as the compound, how does the EC50 [7] read?
Answer: The EC50 was > 20 µM (not active).

Question: What about the EC50 [8] of the same compound?
Answer: Its EC50 is > 20 µM (not active).
